According to patent US11446298B2, “Pyrimidine derivatives” (Idorsia Pharmaceuticals Ltd, priority 2017, dated 2022):
pIC50: −log10 of the molar value.

How the values were obtained:
Assay type in all cases: cell-based
PTGER4 (EP4) = biological target: T1, PTGER4 (EP4) (Homo sapiens, UniProt P35408); assay: hEP4 b-Arrestin Assay (PathHunter HEK 293 PTGER4 b-arrestin cells, PGE2 20 nM); settings: antagonistic activity, beta-arrestin assay, HEK 293 PTGER4 cells, PGE2 20 nM (EC80); read-out: hEP4 b-arr IC50
T1 construct: host or cells: HEK 293 (PathHunter, stably transfected)
Procedure: The antagonistic activities of the compounds of formula (I) on the EP2 and EP4 receptors are also determined in accordance with the following experimental method.
The assay is using the PathHunter™ HEK 293 PTGER2 and PTGER4 b-arrestin cell lines from DiscoverX. The system is based on the Enzyme Fragment Complementation Technology. Two complementing fragments of the b-galactosidase enzyme are expressed within stably transfected cells. The larger portion of b-gal, termed EA for Enzyme Acceptor, is fused to the C-terminus of b-arrestin 2. The smaller fragment, termed ProLink™ tag, is fused to PTGER2 (EP2) or PTRGER4 (EP4) at the C-terminus. Upon activation, b-arrestin is recruited which forces the interaction of ProLink and EA, allowing complementation of the two fragments of b-gal and the formation of a functional enzyme which is capable of hydrolysing the substrate and generating a chemiluminescent signal.
The HEK 293 PTGER4 b-arrestin cells (DiscoverX 93-030-4C1) are detached from culture dishes with a cell dissociation buffer (Invitrogen, 13151-014), and collected in growing medium (GM: DMEM+Glutamax-I (Invitrogen 32430)/10% FCS, 1% Penicilin/streptomycin). 5000 cells per well of a 384 well plate (white with white bottom Greiner 781080) are seeded in 20 ul per well of GM. Plate is incubated at 37° C., 5% CO2 for 24 hours.
Stock solutions of test compounds are made at a concentration of 10 mM in DMSO, and serially diluted in DMSO to concentrations required for inhibition dose response curves (tested concentration range 10 μM-2 nM or 1 μM-0.2 nM).
PGE2 (Cayman 14010, stock solution: 100 μM in DMSO) is used as agonist at 20 nM final concentration, corresponding to EC80.
Five microliters of diluted compounds are transferred into the assay plate. Plate is pre-incubated 15 minutes at 37° C. Then five microliters of PGE2 (final conc. 20 nM) are transferred into the assay plate. Plate is incubated 120 minutes at 37° C.
PathHunter Glo Detection Kit components are thawed and mix according to manufacturer's instructions: 1 part Galacton Star Substrate with 5 parts Emerald II™ Solution, and 19 parts of PathHunter Cell Assay Buffer, respectively. Twelve μl of reagent are transferred to the assay plate and incubate for 1 hour at room temperature in the dark. Luminescence counts are read on a BMG Fluostar Optima reader according to manufacturer's instructions.
For each compound concentration calculate of the percentage of activity compared to DMSO control value as average ±STDEV. (each concentration is measured in duplicate)
IC50 values and curves are generated with XLfit software (IDBS) using Dose-Response One Site model 203. When compounds were measured multiple times, mean values are given.

EP4 = biological target: T2, EP4 (Homo sapiens, UniProt P35408); assay: hEP4 cAMP Assay (BT549 breast cancer cells, HTRF cAMP, PGE2 6 nM); settings: antagonistic activity, PGE2 6 nM (EC80)
T2 construct: BT549 breast cancer cells, express high endogenous EP4 levels and very low EP2 levels; host or cells: BT549 breast cancer cells
Outline: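 Antagonism is measured as inhibition of PGE2 (6 nM final, EC80) cAMP accumulation in EP4-expressing BT549 breast cancer cells, after a 45 min room-temperature compound pre-incubation and 30 min agonist step, with 2 mM IBMX present. HTRF ratio gives cAMP relative to DMSO; IC50 fitted, means over repeat runs.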

PTGER2 (EP2) = biological target: T3, PTGER2 (EP2) (Homo sapiens, UniProt P43116); assay: hEP2 b-Arrestin Assay (PathHunter HEK 293 PTGER2 b-arrestin cells, PGE2 5 μM); settings: antagonistic activity, beta-arrestin assay, HEK 293 PTGER2 cells, PGE2 5 μM (EC80); read-out: hEP2 b-arr IC50
T3 construct: host or cells: HEK 293 (PathHunter, stably transfected)
Outline: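 PathHunter enzyme-fragment complementation in HEK 293 cells: compounds (10 μM-2 nM or 1 μM-0.2 nM) pre-incubated 15 min at 37 °C, then 5 μM PGE2 (EC80) for 120 min at 37 °C. Chemiluminescence read after 1 h detection; IC50 from duplicate dose-response fits, means of repeats.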

EP2 = biological target: T4, EP2 (Homo sapiens, UniProt P43116); assay: hEP2 cAMP Assay (SF295 glioblastoma cells, HTRF cAMP, PGE2 75 nM); settings: antagonistic activity, PGE2 75 nM (EC80)
T4 construct: SF295 glioblastoma cells express high endogenous EP2 and no EP4; host or cells: SF295 glioblastoma cells
Outline: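 IC50 values derive from duplicate-point curves of percent cAMP relative to DMSO, read by HTRF (665/620 nm) against a cAMP calibrator. Compounds (30 μM to 0.01 nM ranges) were given 45 min at room temperature before 30 min with 75 nM PGE2, in EP2-only SF295 cells with 2 mM IBMX.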

T2 sequence (P35408 whole entry): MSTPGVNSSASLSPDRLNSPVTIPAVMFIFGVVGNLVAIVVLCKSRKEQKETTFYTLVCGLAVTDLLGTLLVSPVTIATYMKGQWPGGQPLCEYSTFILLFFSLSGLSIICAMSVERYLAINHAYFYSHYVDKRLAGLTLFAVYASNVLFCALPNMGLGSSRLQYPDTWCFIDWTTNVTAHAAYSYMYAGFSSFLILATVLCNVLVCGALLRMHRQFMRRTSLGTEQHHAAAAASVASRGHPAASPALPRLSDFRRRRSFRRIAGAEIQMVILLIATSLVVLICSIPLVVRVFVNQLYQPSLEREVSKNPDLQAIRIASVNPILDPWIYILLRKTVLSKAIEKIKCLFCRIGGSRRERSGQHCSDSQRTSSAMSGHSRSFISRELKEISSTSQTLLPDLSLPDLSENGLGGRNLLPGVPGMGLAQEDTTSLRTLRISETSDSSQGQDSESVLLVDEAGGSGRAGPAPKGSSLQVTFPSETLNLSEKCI
T1 sequence (P35408 whole entry): as above
T3 sequence (P43116 whole entry): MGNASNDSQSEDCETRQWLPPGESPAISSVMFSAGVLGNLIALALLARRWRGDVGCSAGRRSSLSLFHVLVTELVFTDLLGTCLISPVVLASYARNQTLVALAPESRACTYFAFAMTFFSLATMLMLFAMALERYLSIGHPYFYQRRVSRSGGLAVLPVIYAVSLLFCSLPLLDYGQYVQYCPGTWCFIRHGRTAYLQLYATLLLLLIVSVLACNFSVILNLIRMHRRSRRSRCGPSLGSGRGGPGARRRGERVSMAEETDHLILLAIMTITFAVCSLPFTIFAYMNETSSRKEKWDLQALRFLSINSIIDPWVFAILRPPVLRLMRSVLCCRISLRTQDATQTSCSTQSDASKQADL
T4 sequence (P43116 whole entry): as above

| SMILES | pIC50 (PTGER4 (EP4)) | pIC50 (EP4) | pIC50 (PTGER2 (EP2)) | pIC50 (EP2) |
| --- | --- | --- | --- | --- |
| CCOc1cc(-c2cc(NCCc3c(C)ccc4ncccc34)ncn2)sc1C(=O)O [Example 2, 3-Ethoxy-5-{6-[2-(6-methyl-quinolin-5-yl)-ethylamino]-pyrimidin-4-yl}-thiophene-2-carboxylic acid] | 6.51 | 7.00 | 7.57 | 7.33 |
| CCOc1cc(-c2cc(NCCc3c(OC)ccc4cccnc34)ncn2)sc1C(=O)O [Example 33, 3-Ethoxy-5-{6-[2-(7-methoxy-quinolin-8-yl)-ethylamino]-pyrimidin-4-yl}-thiophene-2-carboxylic acid] | 6.60 | 6.65 | 7.25 | 7.11 |
| CCOc1cc(-c2cc(NCCc3c(OC)c(OC)cc4ccccc34)ncn2)sc1C(=O)O [Example 14, 5-{6-[2-(2,3-Dimethoxy-naphthalen-1-yl)-ethylamino]-pyrimidin-4-yl}-3-ethoxy-thiophene-2-carboxylic acid] | 7.77 | 7.62 | 7.55 | 7.11 |
| CCOc1cc(-c2cc(NCCc3c(C)ccc4ccccc34)ncn2)sc1C(=O)O [Example 1, 3-Ethoxy-5-{6-[2-(2-methyl-naphthalen-1-yl)-ethylamino]-pyrimidin-4-yl}-thiophene-2-carboxylic acid] | 6.75 | 7.33 | 8.30 | 8.40 |
| CCOc1cc(-c2cc(NCCc3c(OCC)ccc4ccccc34)ncn2)sc1C(=O)O [Example 27, 3-Ethoxy-5-{6-[2-(2-ethoxy-naphthalen-1-yl)-ethylamino]-pyrimidin-4-yl}-thiophene-2-carboxylic acid] | 7.28 | 7.48 | 8.52 | 8.70 |
| CSc1cc(-c2cc(NCCc3ccc(Br)c4ccccc34)ncn2)ccc1C(=O)O [Example 171, 4-{6-[2-(4-Bromo-naphthalen-1-yl)-ethylamino]-pyrimidin-4-yl}-2-methylsulfanyl-benzoic acid] | 6.83 | 6.89 | 7.17 | 7.06 |
| CCOc1cc(-c2cc(NCCc3c(OC)ccc4ccccc34)ncn2)sc1CCC(=O)O [Example 131, 3-(3-Ethoxy-5-{6-[2-(2-methoxy-naphthalen-1-yl)-ethylamino]-pyrimidin-4-yl}-thiophen-2-yl)-propionic acid] | 7.06 | 6.80 | 7.27 | 7.14 |
| CCOc1cc(-c2cc(NCCc3c(OCC)ccc4ccccc34)ncn2)ccc1C(=O)O [Example 179, 2-Ethoxy-4-{6-[2-(2-ethoxy-naphthalen-1-yl)-ethylamino]-pyrimidin-4-yl}-benzoic acid] | 6.03 | 5.82 | 8.40 | 8.10 |
| CCOc1cc(-c2cc(NCCc3cccc4nc(C)sc34)ncn2)sc1C(=O)O [Example 31, 3-Ethoxy-5-{6-[2-(2-methyl-benzothiazol-7-yl)-ethylamino]-pyrimidin-4-yl}-thiophene-2-carboxylic acid] | 5.85 | 6.25 | 6.70 | 6.72 |
| COc1ccc2ccccc2c1CCNc1cc(-c2ccc(C(=O)O)c(OC3CCC3)c2)ncn1 [Example 5, 2-Cyclobutoxy-4-{6-[2-(2-methoxy-naphthalen-1-yl)-ethylamino]-pyrimidin-4-yl}-benzoic acid] | 6.74 | 6.69 | 7.60 | 7.62 |
| CCOc1cc(-c2cc(NCCc3cccc4c(C)c(C)n(C)c34)ncn2)sc1C(=O)O [Example 29, 3-Ethoxy-5-{6-[2-(1,2,3-trimethyl-1H-indol-7-yl)-ethylamino]-pyrimidin-4-yl}-thiophene-2-carboxylic acid] | 6.79 | 6.83 | 6.62 | 6.87 |
| CCOc1cc(-c2cc(NCCc3c(OC(F)F)ccc4ccccc34)ncn2)sc1C(=O)O [Example 32, 5-{6-[2-(2-Difluoromethoxy-naphthalen-1-yl)-ethylamino]-pyrimidin-4-yl}-3-ethoxy-thiophene-2-carboxylic acid] | 7.72 | 7.14 | 8.00 | 8.00 |
| CCOc1cc(-c2cc(NCCc3c(OC)ccc4ccccc34)ncn2)ccc1NC(=O)C(=O)O [Example 133, N-(2-Ethoxy-4-{6-[2-(2-methoxy-naphthalen-1-yl)-ethylamino]-pyrimidin-4-yl}-phenyl)-oxalamic acid] | 7.39 | 7.10 | 8.22 | 7.66 |
| CCOc1cc(-c2cc(NCCc3c(OCC)ccc4c3OCO4)ncn2)sc1C(=O)O [Example 45, 3-Ethoxy-5-{6-[2-(5-ethoxy-benzo[1,3]dioxol-4-yl)-ethylamino]-pyrimidin-4-yl}-thiophene-2-carboxylic acid] | 7.28 | 7.36 | 8.00 | 8.00 |
| CCOc1cc(-c2cc(NCCc3ccc(OC)c4ccccc34)ncn2)sc1-c1noc(=O)[nH]1 [Example 141, 3-(3-Ethoxy-5-{6-[2-(4-methoxy-naphthalen-1-yl)-ethylamino]-pyrimidin-4-yl}-thiophen-2-yl)-[1,2,4]oxadiazol-5(4H)-one] | 8.40 | 7.77 | 7.21 | 7.14 |
| CCOc1cc(-c2cc(NCCc3ccc(C#N)c4ccccc34)ncn2)sc1C(=O)O [Example 69, 5-{6-[2-(4-Cyano-naphthalen-1-yl)-ethylamino]-pyrimidin-4-yl}-3-ethoxy-thiophene-2-carboxylic acid] | 7.32 | 7.18 | 7.11 | 7.10 |
| CCOc1cc(-c2cc(NCCc3cccc4ccn(C)c34)ncn2)sc1C(=O)O [Example 24, 3-Ethoxy-5-{6-[2-(1-methyl-1H-indol-7-yl)-ethylamino]-pyrimidin-4-yl}-thiophene-2-carboxylic acid] | 6.69 | 7.02 | 7.77 | 7.82 |
| CSc1cc(-c2cc(NCCc3cccc4c(C)cccc34)ncn2)ccc1C(=O)O [Example 173, 4-{6-[2-(5-Methyl-naphthalen-1-yl)-ethylamino]-pyrimidin-4-yl}-2-methylsulfanyl-benzoic acid] | 6.76 | 6.85 | 8.00 | 7.82 |
| CCOc1cc(-c2cc(NCCc3c(Br)cc(F)c4ccccc34)ncn2)ccc1C(=O)O [Example 181, 4-{6-[2-(2-Bromo-4-fluoro-naphthalen-1-yl)-ethylamino]-pyrimidin-4-yl}-2-ethoxy-benzoic acid] | 6.05 |  | 6.02 |  |
| CSc1cc(-c2cc(NCCc3c(C)ccc4c3ccn4C)ncn2)ccc1C(=O)O [Example 176, 4-{6-[2-(1,5-Dimethyl-1H-indol-4H)-ethylamino]-pyrimidin-4-yl}-2-methylsulfanyl-benzoic acid] | 6.26 |  | 8.52 |  |
